In US20250136722A1, “CYTOTOXICITY TARGETING CHIMERAS” (GLAXOSMITHKLINE INTELLECTUAL PROPERTY DEVELOPMENT LIMITED, priority 2021, published 2025):
Values joined by “and” are separate entries in the source; they are usually repeats but may differ in a detail not shown here. Equal values may be shown once.

Legend:
[1] = biological target: T1, CHOK1 cells engineered to overexpress human CCR2 (Homo sapiens, UniProt P41597); assay: Antibody dependent cellular cytotoxicity (ADCC) reporter assay (Example 199); type: cell-based; conditions: with anti-cotinine antibody SEQ ID NO: 11/12, CHOK1-human CCR2 target cells, Jurkat FcγRIIIa NFAT-luciferase reporter cells, 12-18 hours; for EC50: read-out: ADCC Reporter Assay pEC50 (converted)
T1 construct: expressed in transfected cells; host or cells: CHOK1 cells
Procedure, shortened: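 CHOK1-hCCR2 target cells are co-incubated for 12–18 h with Jurkat FcγRIIIa/NFAT-luciferase reporter cells, ARM compound (1 pM–10 μM) and anti-cotinine antibody with a DE-mutant human IgG1 Fc (0.01–200 μg/mL). Luminescence is expressed as signal:background against no-compound wells; EC50 comes from nonlinear fit and is reported as pEC50, averaged across runs.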

[2] = biological target: Anti-cotinine antibody (SEQ ID NO: 11 / SEQ ID NO: 12, rabbit variable region with human IgG1 Fc domain); assay: Binding of anti-cotinine antibody to ARM compounds by SPR, Biacore T200, 37° C. (Example 202); conditions: pH 7.4, rabbit variable region/human IgG1 Fc antibody captured on protein A
Procedure, shortened: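 Antibody captured on protein A chip. Compounds injected (3-fold, 5-point, top 200 nM) at 100 μL/min with 200 s association and 2000 s dissociation, at 37° C. in HEPES pH 7.4 buffer with 1% DMSO. Double-referenced data fit to 1:1 kinetics. Kd = koff/kon, reported as pKd, averaged over runs.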

[3] = biological target: human alpha1 nicotinic acetylcholine (nACh) receptor (Homo sapiens, UniProt P02708+Q07001); assay: Nicotinic acetylcholine receptor antagonism assay, IONFlux automated patch clamp (Example 203); type: cell-based; conditions: for Emax at 10 µM: maximum percentage antagonism at maximum concentration tested 10 μM; for IC50: nAChR antagonism, ACh stimulated, patch clamp; for Emax at 100 µM: maximum percentage antagonism at maximum concentration tested 100 μM
human alpha1 nicotinic acetylcholine (nACh) receptor, sequence (P02708 21-457): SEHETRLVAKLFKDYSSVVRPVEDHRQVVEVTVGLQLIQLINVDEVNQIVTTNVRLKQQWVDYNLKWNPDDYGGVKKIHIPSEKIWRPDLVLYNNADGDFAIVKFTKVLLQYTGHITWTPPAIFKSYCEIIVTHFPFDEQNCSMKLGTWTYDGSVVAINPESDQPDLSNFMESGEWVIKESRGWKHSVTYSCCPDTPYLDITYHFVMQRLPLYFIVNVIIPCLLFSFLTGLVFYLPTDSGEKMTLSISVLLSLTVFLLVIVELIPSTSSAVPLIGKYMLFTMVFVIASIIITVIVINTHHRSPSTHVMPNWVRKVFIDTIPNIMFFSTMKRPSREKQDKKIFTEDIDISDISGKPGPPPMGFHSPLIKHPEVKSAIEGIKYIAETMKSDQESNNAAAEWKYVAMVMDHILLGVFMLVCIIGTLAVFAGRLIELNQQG
human alpha1 nicotinic acetylcholine (nACh) receptor, sequence (P11230 24-501 partner): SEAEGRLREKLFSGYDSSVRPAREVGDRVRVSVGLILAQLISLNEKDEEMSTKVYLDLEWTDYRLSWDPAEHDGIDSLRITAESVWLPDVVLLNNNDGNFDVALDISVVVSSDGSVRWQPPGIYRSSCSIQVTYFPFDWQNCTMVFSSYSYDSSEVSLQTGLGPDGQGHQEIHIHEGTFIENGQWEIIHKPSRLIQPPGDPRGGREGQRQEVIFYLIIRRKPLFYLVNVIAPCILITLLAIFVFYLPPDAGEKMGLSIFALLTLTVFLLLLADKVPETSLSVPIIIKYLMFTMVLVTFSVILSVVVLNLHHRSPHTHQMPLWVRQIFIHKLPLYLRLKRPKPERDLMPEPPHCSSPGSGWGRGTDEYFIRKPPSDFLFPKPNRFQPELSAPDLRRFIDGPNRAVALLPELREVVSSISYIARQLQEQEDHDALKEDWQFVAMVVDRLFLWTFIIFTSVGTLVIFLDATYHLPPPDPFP
human alpha1 nicotinic acetylcholine (nACh) receptor, sequence (Q07001 22-517): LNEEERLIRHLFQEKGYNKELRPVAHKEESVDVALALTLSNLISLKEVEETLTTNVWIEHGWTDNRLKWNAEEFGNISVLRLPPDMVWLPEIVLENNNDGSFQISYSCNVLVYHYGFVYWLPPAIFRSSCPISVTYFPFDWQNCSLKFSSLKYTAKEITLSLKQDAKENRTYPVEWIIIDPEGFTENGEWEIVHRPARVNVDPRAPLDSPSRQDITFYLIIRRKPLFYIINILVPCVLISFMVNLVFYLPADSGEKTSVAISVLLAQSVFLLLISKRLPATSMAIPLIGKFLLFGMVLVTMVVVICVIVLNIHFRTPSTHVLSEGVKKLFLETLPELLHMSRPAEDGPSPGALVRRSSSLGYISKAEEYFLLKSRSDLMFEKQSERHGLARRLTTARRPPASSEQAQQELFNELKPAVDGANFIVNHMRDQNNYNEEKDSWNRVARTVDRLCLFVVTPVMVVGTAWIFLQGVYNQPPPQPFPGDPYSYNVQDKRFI
Procedure: Cells expressing human alpha1 nicotinic acetylcholine (nACh) receptor (nAChR) were washed and dissociated using Trypsin containing buffer. Cells were then washed and seeded at a density of 3-5 million cells/mL and allowed to grow for 3 days. Then, 60-80 μL of cells were added to plates and incubated with dose response of an ARM compound of Formula (I) with a top concentration of either 10 μM or 100 μM. The receptor was then stimulated via addition of acetylcholine (ACh) and activation of the receptor was monitored via the IONFlux automated patch clamp system. IonFlux Data Analyzer software was utilized to perform leak subtraction and measure (min) peak current amplitude.
Data processing: (1) Current values recorded for vehicle only applications in individual traps/patterns were subtracted from corresponding current amplitude values for control, test article and control+test article. (2) Control response was calculated as % of the average response of the 3rd out of total 3 ACh (10 mM) applications alone. In rare situations, if the 3rd ACh response was obscured due to technical artifacts, the 2nd and/or 1 st ACh (10 mM) application was considered as control. The peak current amplitude generated in the presence of each test article concentration was then used to calculate the % inhibition as compared to control response (10 mM ACh alone). These estimates were further corrected for vehicle response and run down corrected by normalizing with time matched control responses (10 mM ACh alone). The corrected percentages were then fit with a non-linear function in GraphPad Prism 6 (or later versions) to determine the […].
Exclusion criteria: (i) any n's with poor recording quality, (ii) control current amplitude <500 pA or (iii) significant outliers, as determined by the Grubbs' test.
ARMs compounds of Formula (I) of the invention were tested for antagonism of the nAChR in the above assay in […] experimental runs and the results are shown in Table 7 below. Antagonistic activity of the compounds of Formula (I) of the invention is reported as an IC50 value (half maximal inhibitory concentration) and the maximum percentage antagonism observed at the highest concentration of compound of Formula (I) tested, as indicated in Table 7. For compounds tested in more than one experimental run, the IC50 value is reported as an average.

Row | pKd of Antibody for ARM Compound of Formula (I) [2] | Emax at 10 µM ([3]; read-out: Maximum Response (%)) | IC50 [3] | Emax at 100 µM ([3]; read-out: Maximum Response (%)) | Emax at 11.11 µM ([3]; maximum percentage antagonism at maximum concentration tested 11.11 μM, read-out: Maximum Response (%)) | Compound | EC50 [1] | ADCC Reporter Assay pEC50 [1] | Emax at 33.33 µM ([3]; maximum percentage antagonism at maximum concentration tested 33.33 μM, read-out: Maximum Response (%)) | Emax at 30 µM ([3]; maximum percentage antagonism at maximum concentration tested 30 μM, read-out: Maximum Response (%))
1 | 9.3155 | 5.4% | > 10000 nM | – | – | CC(C)N(C)[C@@H]1CC[C@H](N2CC[C@H](Nc3ncnc4ccc(C(F)(F)F)cc34)C2=O)[C@H](NC(=O)[C@H]2CC[C@H](NC(=O)CCOCCOCCOCCNC(=O)[C@H]3CC(=O)N(C)[C@@H]3c3cccnc3)CC2)C1 [Example 30] | 7.53 nM | – | – | –
2 | 9.933 | – | 28500 nM | 79.2% | – | CCN1C(=O)C[C@H](C(=O)NCCOCCOCCOCCC(=O)N[C@H]2CC[C@@H](C(=O)N[C@@H]3C[C@H](N(C)C(C)C)CC[C@@H]3N3CC[C@H](Nc4ncnc5ccc(C(F)(F)F)cc45)C3=O)CC2)[C@H]1c1cccnc1 [Example 34] | 1 nM | – | – | –
3 | 9.531 | – | > 11100 nM | – | 10% | CC(C)N(C)[C@@H]1CC[C@H](N2CC[C@H](Nc3ncnc4ccc(C(F)(F)F)cc34)C2=O)[C@H](NC(=O)[C@H]2CC[C@H](NC(=O)CCOC[C@H]3CC[C@H](COCCNC(=O)[C@H]4CC(=O)N(C)[C@@H]4c4cccnc4)CC3)CC2)C1 [Example 53, (2S,3S)-N-(2-(((1R,4S)-4-((3-(((1R,4R)-4-(((1R,2S,5R)-5-(Isopropyl(methyl)amino)-2-((S)-2-oxo-3-((6-(trifluoromethyl)quinazolin-4-yl)amino)pyrrolidin-1-yl)cyclohexyl)carbamoyl)cyclohexyl)amino)-3-oxopropoxy)methyl)cyclohexyl)methoxy)ethyl)-1-methyl-5-oxo-2-(pyridin-3-yl)pyrrolidine-3-carboxamide] | 7.6 nM | – | – | –
4 | 9.6305 | – | 29000 nM | 67.9% | – | CC(C)N(C)[C@@H]1CC[C@H](N2CC[C@H](Nc3ncnc4ccc(C(F)(F)F)cc34)C2=O)[C@H](NC(=O)CCNC(=O)CCCOC[C@H]2CC[C@@H](COCCNC(=O)[C@H]3CC(=O)N(C)[C@@H]3c3cccnc3)CC2)C1 [Example 62] | 0.867 nM | – | – | –
5 | 9.8865 | 32.7% | > 10000 nM | – | – | CC(C)N(C)[C@@H]1CC[C@H](N2CC[C@H](Nc3ncnc4ccc(C(F)(F)F)cc34)C2=O)[C@H](NC(=O)[C@H]2CC[C@@H](C3CCN(C(=O)CCOCCOCCNC(=O)[C@H]4CC(=O)N(C)[C@@H]4c4cccnc4)CC3)CC2)C1 [Example 72, (2S,3S)-N-(2-(2-(3-(4-((1S,4s)-4-(((1R,2S,5R)-5-(isopropyl(methyl)amino)-2-((S)-2-oxo-3-((6-(trifluoromethyl)quinazolin-4-yl)amino)pyrrolidin-1-yl)cyclohexyl)carbamoyl)cyclohexyl)piperidin-1-yl)-3-oxopropoxy)ethoxy)ethyl)-1-methyl-5-oxo-2-(pyridin-3-yl)pyrrolidine-3-carboxamide] | 7.94 nM | – | – | –
6 | 9.1155 | – | 32400 nM | 67.7% | – | CC(C)N(C)[C@@H]1CC[C@H](N2CC[C@H](Nc3ncnc4ccc(C(F)(F)F)cc34)C2=O)[C@H](NC(=O)CCOCCOCCNC(=O)CCOCCOCCNC(=O)[C@H]2CC(=O)N(C)[C@@H]2c2cccnc2)C1 [Example 76] | 2.51 nM | – | – | –

The remaining lines, values behind:

Row | Compound | pKd of Antibody for ARM Compound of Formula (I) [2] | Emax at 10 µM ([3]; read-out: Maximum Response (%)) | IC50 [3] | Emax at 100 µM ([3]; read-out: Maximum Response (%)) | Emax at 11.11 µM ([3]; maximum percentage antagonism at maximum concentration tested 11.11 μM, read-out: Maximum Response (%)) | EC50 [1] | ADCC Reporter Assay pEC50 [1] | Emax at 33.33 µM ([3]; maximum percentage antagonism at maximum concentration tested 33.33 μM, read-out: Maximum Response (%)) | Emax at 30 µM ([3]; maximum percentage antagonism at maximum concentration tested 30 μM, read-out: Maximum Response (%))
7 | CCN1C(=O)C[C@H](C(=O)NCCOCCOCCOCCC(=O)N[C@H]2CC[C@@H](C(=O)N[C@@H]3C[C@H](NC(C)(C)C)CC[C@@H]3N3CC[C@H](Nc4ncnc5ccc(C(F)(F)F)cc45)C3=O)CC2)[C@H]1c1cccnc1 [Example 35] | 9.785 | – | 89200 nM | 52.3% | – | 2.51 nM | – | – | –
8 | CC(C)N(C)[C@@H]1CC[C@H](N2CC[C@H](Nc3ncnc4ccc(C(F)(F)F)cc34)C2=O)[C@H](NC(=O)C2CCC(NC(=O)CCOCCNC(=O)CCOCCNC(=O)[C@H]3CC(=O)N(C)[C@@H]3c3cccnc3)CC2)C1 (stereo partly drawn) [Example 48] | 8.975 | – | 31800 nM | 77% | – | – | 9.159 and 9.168 | – | –
9 | CC(C)N(C)[C@@H]1CC[C@H](N2CC[C@H](Nc3ncnc4ccc(C(F)(F)F)cc34)C2=O)[C@H](NC(=O)[C@H]2C[C@@H](NC(=O)CCOCCOCCNC(=O)CCNC(=O)[C@H]3CC(=O)N(C)[C@@H]3c3cccnc3)C2)C1 [Example 49, (2S,3S)-N-(3-((2-(2-(3-(((1S,3s)-3-(((1R,2S,5R)-5-(Isopropyl(methyl)amino)-2-((S)-2-oxo-3-((6-(trifluoromethyl)quinazolin-4-yl)amino)pyrrolidin-1-yl)cyclohexyl)carbamoyl)cyclobutyl)amino)-3-oxopropoxy)ethoxy)ethyl)amino)-3-oxopropyl)-1-methyl-5-oxo-2-(pyridin-3-yl)pyrrolidine-3-carboxamide] | 9.191 | – | 80300 nM | 56.7% | – | 0.845 nM and 0.303 nM | – | – | –
10 | CC(C)N(C)[C@@H]1CC[C@H](N2CC[C@H](Nc3ncnc4ccc(C(F)(F)F)cc34)C2=O)[C@H](NC(=O)[C@H]2CC[C@@H](NC(=O)CCCO[C@H]3CC[C@H](NC(=O)CCNC(=O)[C@@H]4CC(=O)N(C)[C@H]4c4cccnc4)CC3)CC2)C1 [Example 52, (2S,3S)-N-(3-(((1R,4S)-4-(4-(((1S,4S)-4-(((1R,2S,5R)-5-(Isopropyl(methyl)amino)-2-((S)-2-oxo-3-((6-(trifluoromethyl)quinazolin-4-yl)amino)pyrrolidin-1-yl)cyclohexyl)carbamoyl)cyclohexyl)amino)-4-oxobutoxy)cyclohexyl)amino)-3-oxopropyl)-1-methyl-5-oxo-2-(pyridin-3-yl)pyrrolidine-3-carboxamide] | 9.2545 | – | > 33300 nM | – | – | 0.222 nM and 0.294 nM | – | 8.3% | –
11 | CC(C)N(C)[C@@H]1CC[C@H](N2CC[C@H](Nc3ncnc4ccc(C(F)(F)F)cc34)C2=O)[C@H](NC(=O)[C@H]2CC[C@H](NC(=O)CCCOC[C@H]3CC[C@@H](COCCNC(=O)[C@H]4CC(=O)N(C)[C@@H]4c4cccnc4)CC3)CC2)C1 [Example 57, (2S,3S)-N-(2-(((1S,4R)-4-((4-(((1R,4R)-4-(((1R,2S,5R)-5-(Isopropyl(methyl)amino)-2-((S)-2-oxo-3-((6-(trifluoromethyl)quinazolin-4-yl)amino)pyrrolidin-1-yl)cyclohexyl)carbamoyl)cyclohexyl)amino)-4-oxobutoxy)methyl)cyclohexyl)methoxy)ethyl)-1-methyl-5-oxo-2-(pyridin-3-yl)pyrrolidine-3-carboxamide] | 9.685 | – | > 30000 nM | – | – | 1.61 nM and 1.48 nM and 5.07 nM | – | – | 47.6%
12 | CC(C)N(C)[C@@H]1CC[C@H](N2CC[C@H](Nc3ncnc4ccc(C(F)(F)F)cc34)C2=O)[C@H](NC(=O)[C@H]2CC[C@@H](NC(=O)CCOCCOCCNC(=O)CNC(=O)[C@H]3CC(=O)N(C)[C@@H]3c3cccnc3)CC2)C1 [Example 63, (2S,3S)-N-(2-((2-(2-(3-(((1 S,4s)-4-(((1R,2S,5R)-5-(Isopropyl(methyl)amino)-2-((S)-2-oxo-3-((6-(trifluoromethyl)quinazolin-4-yl)amino)pyrrolidin-1-yl)cyclohexyl)carbamoyl)cyclohexyl)amino)-3-oxopropoxy)ethoxy)ethyl)amino)-2-oxoethyl)-1-methyl-5-oxo-2-(pyridin-3-yl)pyrrolidine-3-carboxamide] | 8.674 | – | 38500 nM | 76.6% | – | 0.67 nM and 0.31 nM | – | – | –
